From PubChem BioAssay (NCI)
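In this assay, cells in 96-well plates receive the compound at five concentrations for 48 hours. Endpoints are linearly interpolated between the surrounding concentrations. Abbreviation: GI50, concentration required for 50% inhibition of growth. At the TGI there is no net growth.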

Legend:
Assay in all cases: NCI-60 cell line screen, 48 h
TK-10 renal = tested on: TK-10 renal
COLO 205 colon = tested on: COLO 205 colon
HT29 colon = tested on: HT29 colon
HCT-15 colon = tested on: HCT-15 colon
MDA-MB-231 breast = tested on: MDA-MB-231 breast
SK-MEL-28 melanoma = tested on: SK-MEL-28 melanoma
RPMI-8226 leukemia = tested on: RPMI-8226 leukemia
CCRF-CEM leukemia = tested on: CCRF-CEM leukemia
A549 NSCLC = tested on: A549 NSCLC
HCC-2998 colon = tested on: HCC-2998 colon
NCI-H23 lung = tested on: NCI-H23 lung
HOP-92 NSCLC = tested on: HOP-92 NSCLC
SNB-75 CNS = tested on: SNB-75 CNS
NCI-H226 lung = tested on: NCI-H226 lung
M14 melanoma = tested on: M14 melanoma
OVCAR-8 ovarian = tested on: OVCAR-8 ovarian
NCI-H460 lung = tested on: NCI-H460 lung
LOX IMVI melanoma = tested on: LOX IMVI melanoma
UACC-62 melanoma = tested on: UACC-62 melanoma
BT-549 breast = tested on: BT-549 breast
MCF7 breast = tested on: MCF7 breast
K-562 leukemia = tested on: K-562 leukemia
HOP-62 NSCLC = tested on: HOP-62 NSCLC
DU-145 prostate = tested on: DU-145 prostate
SK-MEL-5 melanoma = tested on: SK-MEL-5 melanoma
OVCAR-4 ovarian = tested on: OVCAR-4 ovarian
U251 CNS = tested on: U251 CNS
SW-620 colon = tested on: SW-620 colon
UO-31 renal = tested on: UO-31 renal
RXF 393 renal = tested on: RXF 393 renal
SN12C renal = tested on: SN12C renal
HCT-116 colon = tested on: HCT-116 colon
IGROV1 ovarian = tested on: IGROV1 ovarian
SF-539 CNS = tested on: SF-539 CNS
ACHN renal = tested on: ACHN renal
A498 renal = tested on: A498 renal
HL-60(TB) leukemia = tested on: HL-60(TB) leukemia
HS 578T breast = tested on: HS 578T breast
CAKI-1 renal = tested on: CAKI-1 renal
UACC-257 melanoma = tested on: UACC-257 melanoma
MALME-3M melanoma = tested on: MALME-3M melanoma
SK-MEL-2 melanoma = tested on: SK-MEL-2 melanoma
SK-OV-3 ovarian = tested on: SK-OV-3 ovarian
SF-295 CNS = tested on: SF-295 CNS
SF-268 CNS = tested on: SF-268 CNS
KM12 colon = tested on: KM12 colon
PC-3 prostate = tested on: PC-3 prostate
SNB-19 CNS = tested on: SNB-19 CNS
T-47D breast = tested on: T-47D breast
OVCAR-5 ovarian = tested on: OVCAR-5 ovarian
786-0 renal = tested on: 786-0 renal
NCI/ADR-RES ovarian = tested on: NCI/ADR-RES ovarian
MOLT-4 leukemia = tested on: MOLT-4 leukemia
EKVX NSCLC = tested on: EKVX NSCLC

Compound: CCC1=Cc2c(OC)cccc2OC12C=Cc1c(OC)cccc1O2 (stereo not drawn)
- GI50 (TK-10 renal): 24500 nM
- TGI (TK-10 renal): > 100000 nM
- GI50 (COLO 205 colon): 1310 nM
- TGI (COLO 205 colon): 3700 nM
- GI50 (HT29 colon): 508 nM
- TGI (HT29 colon): 3760 nM
- GI50 (HCT-15 colon): 469 nM
- TGI (HCT-15 colon): > 100000 nM
- GI50 (MDA-MB-231 breast): 2030 nM
- TGI (MDA-MB-231 breast): 73200 nM
- GI50 (SK-MEL-28 melanoma): > 100000 nM
- TGI (SK-MEL-28 melanoma): > 100000 nM
- GI50 (RPMI-8226 leukemia): 2870 nM
- TGI (RPMI-8226 leukemia): > 100000 nM
- GI50 (CCRF-CEM leukemia): 551 nM
- TGI (CCRF-CEM leukemia): > 100000 nM
- GI50 (A549 NSCLC): 1520 nM
- TGI (A549 NSCLC): > 100000 nM
- GI50 (HCC-2998 colon): 2580 nM
- TGI (HCC-2998 colon): 13200 nM
- GI50 (NCI-H23 lung): 2930 nM
- TGI (NCI-H23 lung): > 100000 nM
- GI50 (HOP-92 NSCLC): 1000 nM
- TGI (HOP-92 NSCLC): 8790 nM
- GI50 (SNB-75 CNS): 1310 nM
- TGI (SNB-75 CNS): 9270 nM
- GI50 (NCI-H226 lung): 2840 nM
- TGI (NCI-H226 lung): 52100 nM
- GI50 (M14 melanoma): 570 nM
- TGI (M14 melanoma): 22000 nM
- GI50 (OVCAR-8 ovarian): 2150 nM
- TGI (OVCAR-8 ovarian): 6510 nM
- GI50 (NCI-H460 lung): 2570 nM
- TGI (NCI-H460 lung): 14200 nM
- GI50 (LOX IMVI melanoma): 1600 nM
- TGI (LOX IMVI melanoma): > 100000 nM
- GI50 (UACC-62 melanoma): 530 nM
- TGI (UACC-62 melanoma): > 100000 nM
- GI50 (BT-549 breast): 1610 nM
- TGI (BT-549 breast): 6220 nM
- GI50 (MCF7 breast): 414 nM
- TGI (MCF7 breast): > 100000 nM
- GI50 (K-562 leukemia): 463 nM
- TGI (K-562 leukemia): > 100000 nM
- GI50 (HOP-62 NSCLC): 1660 nM
- TGI (HOP-62 NSCLC): > 100000 nM
- GI50 (DU-145 prostate): 2140 nM
- TGI (DU-145 prostate): > 100000 nM
- GI50 (SK-MEL-5 melanoma): 1240 nM
- TGI (SK-MEL-5 melanoma): 8330 nM
- GI50 (OVCAR-4 ovarian): 47400 nM
- TGI (OVCAR-4 ovarian): > 100000 nM
- GI50 (U251 CNS): 1090 nM
- TGI (U251 CNS): > 100000 nM
- GI50 (SW-620 colon): 707 nM
- TGI (SW-620 colon): > 100000 nM
- GI50 (UO-31 renal): 2400 nM
- TGI (UO-31 renal): > 100000 nM
- GI50 (RXF 393 renal): 990 nM
- TGI (RXF 393 renal): 7290 nM
- GI50 (SN12C renal): 940 nM
- TGI (SN12C renal): > 100000 nM
- GI50 (HCT-116 colon): 436 nM
- TGI (HCT-116 colon): > 100000 nM
- GI50 (IGROV1 ovarian): 2500 nM
- TGI (IGROV1 ovarian): > 100000 nM
- GI50 (SF-539 CNS): 1570 nM
- TGI (SF-539 CNS): 9030 nM
- GI50 (ACHN renal): 2850 nM
- TGI (ACHN renal): > 100000 nM
- GI50 (A498 renal): 1300 nM
- TGI (A498 renal): 4170 nM
- GI50 (HL-60(TB) leukemia): 507 nM
- TGI (HL-60(TB) leukemia): > 100000 nM
- GI50 (HS 578T breast): 2550 nM
- TGI (HS 578T breast): > 100000 nM
- GI50 (CAKI-1 renal): 858 nM
- TGI (CAKI-1 renal): > 100000 nM
- GI50 (UACC-257 melanoma): 7480 nM
- TGI (UACC-257 melanoma): > 100000 nM
- GI50 (MALME-3M melanoma): 3790 nM
- TGI (MALME-3M melanoma): > 100000 nM
- GI50 (SK-MEL-2 melanoma): 1220 nM
- TGI (SK-MEL-2 melanoma): 6030 nM
- GI50 (SK-OV-3 ovarian): 2930 nM
- TGI (SK-OV-3 ovarian): > 100000 nM
- GI50 (SF-295 CNS): 1010 nM
- TGI (SF-295 CNS): > 100000 nM
- GI50 (SF-268 CNS): 3090 nM
- TGI (SF-268 CNS): > 100000 nM
- GI50 (KM12 colon): 519 nM
- TGI (KM12 colon): 32400 nM
- GI50 (PC-3 prostate): 1730 nM
- TGI (PC-3 prostate): > 100000 nM
- GI50 (SNB-19 CNS): 646 nM
- TGI (SNB-19 CNS): > 100000 nM
- GI50 (T-47D breast): 16300 nM
- TGI (T-47D breast): > 100000 nM
- GI50 (OVCAR-5 ovarian): 1840 nM
- TGI (OVCAR-5 ovarian): > 100000 nM
- GI50 (786-0 renal): 1840 nM
- TGI (786-0 renal): > 100000 nM
- GI50 (NCI/ADR-RES ovarian): 678 nM
- TGI (NCI/ADR-RES ovarian): > 100000 nM
- GI50 (MOLT-4 leukemia): 2390 nM
- TGI (MOLT-4 leukemia): > 100000 nM
- GI50 (EKVX NSCLC): 4740 nM
- TGI (EKVX NSCLC): > 100000 nM
